Data reported in PubChem BioAssay (NCI).
Where “and” joins values, the source holds several entries; their conditions need not be identical. Equal entries are not always repeated.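 In this assay, cells in 96-well plates receive the compound at five concentrations for 48 hours. Endpoints are linearly interpolated between the surrounding concentrations. GI50: concentration for 50% inhibition of growth. TGI: total growth inhibition.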

Key:
Assay in all cases: NCI tumour cell line growth inhibition, 48 h
DLD-1 colon = test system: DLD-1 colon
DMS 114 small cell lung = test system: DMS 114 small cell lung
HOP-18 NSCLC = test system: HOP-18 NSCLC
KM20L2 colon = test system: KM20L2 colon
M19-MEL melanoma = test system: M19-MEL melanoma
SNB-78 CNS = test system: SNB-78 CNS
XF 498 CNS = test system: XF 498 CNS
MDA-N = test system: MDA-N
RXF-631 renal = test system: RXF-631 renal
P388 leukemia = test system: P388 leukemia
P388/ADR leukemia = test system: P388/ADR leukemia
SN12K1 renal = test system: SN12K1 renal

Compound | TGI (DLD-1 colon) | TGI (DMS 114 small cell lung) | TGI (HOP-18 NSCLC) | TGI (KM20L2 colon) | TGI (M19-MEL melanoma) | TGI (SNB-78 CNS) | TGI (XF 498 CNS) | TGI (RXF-631 renal) | other results
COc1cc(C2c3cc4c(cc3[C@@H](NCCN(C)C)C3COC(=O)[C@H]23)OCO4)cc(OC)c1O (stereo partly drawn) | 4.03 µM and 7.43 µM | 0.533 µM and 2.11 µM | 2.63 µM and 6.98 µM | 2.16 µM and 3.62 µM | 4.11 µM and 7.18 µM | 68.3 µM and 77.8 µM | 0.978 µM and 2.02 µM |  | GI50 (DMS 114 small cell lung): 0.0491 µM and 0.347 µM; GI50 (HOP-18 NSCLC): 0.108 µM and 0.428 µM; GI50 (KM20L2 colon): 0.425 µM and 1.14 µM; GI50 (SNB-78 CNS): 1.24 µM and 3.25 µM
CC(C)/C=C1\CCC(CN(C)C)C1=O (stereo not drawn) | 11.2 µM | 10.3 µM | 8.72 µM | 28.6 µM | 33.7 µM | 23.8 µM | 4.17 µM |  | TGI (MDA-N): 7.78 µM
CCOc1ccccc1N=Nc1ccc2oc(=O)c(C(C)=O)cc2c1 | > 100 µM | > 100 µM |  | > 100 µM | > 100 µM | > 100 µM | > 100 µM |  | 
Cc1ccc(C(=O)CC2(O)C(=O)Nc3c(C)cc(Cl)cc32)cc1 (stereo not drawn) | > 100 µM | > 100 µM | > 100 µM | > 100 µM |  | > 100 µM | > 100 µM | > 100 µM | 
O=[N+]([O-])c1ccc(C2=Nc3ccccc3S(=O)C(c3ccccc3)C2)cc1 (stereo not drawn) | 38.4 µM | 42.8 µM | > 100 µM | 57.8 µM | 29.6 µM |  | 47.9 µM | 40.1 µM | 
CC1CC2C3CCC4=CC(=O)C=CC4(C)C3(F)C(O)CC2(C)C1(O)C(=O)COP(=O)(O)O (stereo not drawn) | > 100 µM |  | > 100 µM | > 100 µM | > 100 µM | > 100 µM | > 100 µM |  | TGI (MDA-N): 47.4 µM
Nc1ccc2n[se]nc2c1 | > 100 µM | > 100 µM | > 100 µM | > 100 µM | > 100 µM | > 100 µM | > 100 µM | > 100 µM | 
CN(C)CCNC(=O)c1cccc2c1nc(-c1ccc(F)cc1)c1ccccc12 | 15 µM | 19.2 µM | 27.4 µM |  | 18.6 µM | 25.7 µM |  |  | 
C=C1C[C@H]2C=Nc3cc(OCCCOc4cc5c(cc4OC)C(=O)N4CC(=C)C[C@H]4C=N5)c(OC)cc3C(=O)N2C1 |  |  |  |  |  |  |  |  | TGI (MDA-N): 0.0256 µM
O=C1c2ccccc2C(=O)c2cc3c(cc21)CS(=O)C3 | > 100 µM | > 100 µM | > 100 µM | > 100 µM | > 100 µM |  |  |  | 
N#CCCn1[nH]c(=O)c(Cl)c(Cl)c1=O | 27 µM | 36.5 µM | 30.6 µM | 29.7 µM | 42 µM | 41.9 µM | 29.6 µM | 37.1 µM | 
CC(C)(C)c1cc(CCC(=O)Nc2ccc(Cl)cc2)[nH]c(=S)n1 | > 100 µM | > 100 µM | > 100 µM | > 100 µM | > 100 µM |  | > 100 µM | > 100 µM | 
O=S1(=O)N2CN3CN(C2)CN1C3 | 96.8 µM and 97.5 µM | 55.3 µM | > 86.4 µM and 91.6 µM | 180 µM | 337 µM | 118 µM |  |  | GI50 (DLD-1 colon): 30.1 µM; GI50 (HOP-18 NSCLC): 24.7 µM; GI50 (KM20L2 colon): 37.1 µM; TGI (P388 leukemia): 47.6 µM; TGI (P388/ADR leukemia): 44 µM
CC(=O)C1CCN(c2ccccc2)C1 (stereo not drawn) | > 100 µM | > 100 µM |  |  | > 100 µM | > 100 µM | > 100 µM |  | 
CCOC(=O)C(C)(NC(=O)c1ccc(NCc2ccc3nc(NC(=O)c4ccccc4)nc(NC(=O)c4ccccc4)c3c2)cc1)C(=O)OCC | > 100 µM | 42 µM | > 100 µM | 85.3 µM | 24.9 µM | 45.4 µM |  | 51 µM | 
O=C1C(c2ccccc2)=C(c2ccccc2)C(c2ccc(Cc3ccc(C4=C(c5ccccc5)C(=O)C(c5ccccc5)=C4c4ccccc4)cc3)cc2)=C1c1ccccc1 | > 100 µM | > 100 µM | > 100 µM | > 100 µM | > 100 µM | > 100 µM | > 100 µM |  | 
Cc1ccccc1N=Nc1c(O)ccc2ccccc12 |  |  |  |  |  |  |  |  | TGI (MDA-N): > 100 µM
COc1ccccc1NC(=O)C1=C(C)NC(C)=C(C(=O)Nc2ccccc2OC)C1c1ccccc1[N+](=O)[O-] | 36.5 µM | 31.2 µM | > 100 µM |  | 49 µM | > 100 µM | 46.2 µM | 53.6 µM | 
NC1NC=NC2C1N=CN2C1OC(CO)C2[O][Sn][O]C21 (stereo not drawn) |  | > 100 µM | > 100 µM | > 100 µM | > 100 µM | > 100 µM | 52.7 µM |  | GI50 (DMS 114 small cell lung): > 100 µM; GI50 (HOP-18 NSCLC): > 100 µM; GI50 (KM20L2 colon): > 100 µM; GI50 (M19-MEL melanoma): > 100 µM; GI50 (SNB-78 CNS): > 100 µM; GI50 (XF 498 CNS): 1.15 µM
Nc1nncc2c1c(Br)cn2C1OC(CO)C(O)C1O (stereo not drawn) | > 53 µM | 62.6 µM | > 100 µM | > 100 µM | > 100 µM | > 100 µM | > 100 µM | > 100 µM | 

Compound | TGI (DLD-1 colon) | TGI (DMS 114 small cell lung) | TGI (HOP-18 NSCLC) | TGI (KM20L2 colon) | TGI (M19-MEL melanoma) | TGI (SNB-78 CNS) | TGI (XF 498 CNS) | TGI (RXF-631 renal) | other results
CC(=O)OCC1OC(n2c(=S)n(-c3ccc([N+](=O)[O-])cc3)c(=O)c3ccccc32)C(OC(C)=O)C(OC(C)=O)C1OC(C)=O (stereo not drawn) | > 100 µM | > 100 µM and 53.8 µM | 64.4 µM | > 100 µM and 87.7 µM | > 100 µM and 55.4 µM | > 100 µM and 74.5 µM |  | 57.7 µM and 51 µM | GI50 (DLD-1 colon): 21.9 µM and 30.4 µM; GI50 (DMS 114 small cell lung): 23.7 µM and 18.1 µM; GI50 (M19-MEL melanoma): 29.7 µM and 16.8 µM; TGI (MDA-N): 82.3 µM; GI50 (SNB-78 CNS): 34.8 µM and 24.1 µM
CC(C)(CN1C(=O)C(Cl)=C(Cl)C1=O)CN1C(=O)C(Cl)=C(Cl)C1=O | 9.82 µM | 25.2 µM | 36.1 µM | 40 µM | 25 µM | 45.1 µM |  |  | 
O=C(c1ccc(O)cc1O)C1C(c2ccc(O)cc2)OC(c2ccc(O)cc2)C1C(=O)c1ccc(O)cc1O (stereo not drawn) | > 100 µM |  |  | > 100 µM | 36.5 µM | > 100 µM | 32.3 µM |  | 
Cn1c(CBr)nc2c1C(=O)c1nc(CBr)[nH]c(=O)c1C2=O | > 100 µM | > 100 µM | > 100 µM | > 100 µM | 68.6 µM |  |  | > 100 µM | 
COC1C2C[C@@H](O)CCC2C(C(=O)OCCl)C[C@H]1O (stereo partly drawn) | > 100 µM | > 100 µM | > 100 µM | > 100 µM | > 100 µM | > 100 µM |  | > 100 µM | 
Cc1ccc(NC(=O)CCCC(=O)CC(=O)c2ccc(Br)cc2)cc1 | > 100 µM | > 100 µM | > 100 µM | > 100 µM | > 100 µM | > 100 µM |  | > 100 µM | 
Cc1nc(N)nc(N)c1CCCCc1ccc(N)cc1 | 31.6 µM |  |  | 18.2 µM | 25.5 µM | 27.2 µM | 23.6 µM |  | 
NC(=O)c1ccc2c(c1)-c1nc-2nc2[n-]c(nc3nc(nc4[n-]c(n1)c1ccc(C(N)=O)cc41)-c1ccc(C(N)=O)cc1-3)c1ccc(C(N)=O)cc21.[Co+2] | > 50 µM | > 50 µM | > 50 µM | > 50 µM |  | > 50 µM |  | > 50 µM | GI50 (DLD-1 colon): 43.5 µM; GI50 (DMS 114 small cell lung): 19.6 µM; GI50 (HOP-18 NSCLC): > 50 µM; GI50 (KM20L2 colon): > 50 µM; GI50 (RXF-631 renal): > 50 µM; GI50 (SNB-78 CNS): > 50 µM
Cc1ccc(NC(=O)CCc2nc(=S)[nH][nH]2)cc1 | > 100 µM | > 100 µM | > 100 µM | > 100 µM | > 100 µM | > 100 µM | > 100 µM | > 100 µM | 
Cc1ccc(CNc2ccc(Br)cc2)cc1 |  |  |  |  |  |  |  |  | TGI (MDA-N): > 100 µM
COc1cccc2c1-c1nc(N)c3c(OC)cccc3c1C2=O |  |  |  |  |  |  |  |  | TGI (MDA-N): > 100 µM
O=C(O)C1=C/C(=C(/c2ccccc2)c2cc(C(=O)O)c(O)c3ccccc23)c2ccccc2C1=O |  |  |  |  |  |  |  |  | TGI (MDA-N): > 100 µM
CC(C)N(C(=O)C12C3C4C1C1C2C3C41C#N)C(C)C (stereo not drawn) | > 100 µM | > 100 µM | > 100 µM | > 100 µM | > 100 µM | > 100 µM | > 100 µM | > 100 µM | 
COc1cc[c]([Sn]([c]2ccc(OC)cc2)([c]2ccc(OC)cc2)[c]2ccc(OC)cc2)cc1 |  | > 100 µM | 21.1 µM | 47 µM | > 100 µM | 71 µM | > 100 µM |  | GI50 (DMS 114 small cell lung): 23.5 µM; GI50 (HOP-18 NSCLC): 3.81 µM; GI50 (KM20L2 colon): 18.2 µM; GI50 (M19-MEL melanoma): 34.6 µM; GI50 (SNB-78 CNS): 23.7 µM; GI50 (XF 498 CNS): > 100 µM
Oc1ccc(Br)cc1C=Nc1cccc(C(F)(F)F)c1 |  |  |  |  |  |  |  |  | TGI (MDA-N): > 100 µM
COC(=O)NC1C(C)OC(OC2C/C=C(/C)C3C=CC4C(OC5CC(OC6CCC(OC7CC(O)C(OC8CCC(O)C(C)O8)C(C)O7)C(C)O6)C(OC(C)=O)C(C)O5)C(C)CC(C)C4C3(C)/C(O)=C3/C(=O)OC4(CC(C=O)=CC(O)C4/C=C\2C)C3=O)CC1(C)[N+](=O)[O-] (stereo not drawn) | 11.7 µM and 1.8 µM | 1.76 µM and 0.494 µM | 14.5 µM and 3.62 µM | 3.68 µM and 1.42 µM | 2.02 µM and 0.473 µM | 15.4 µM and 26.7 µM | 0.5 µM and 2.06 µM | 10.8 µM | GI50 (DLD-1 colon): 0.427 µM; GI50 (DMS 114 small cell lung): 0.19 µM; GI50 (KM20L2 colon): 0.365 µM; GI50 (M19-MEL melanoma): 0.0982 µM; TGI (MDA-N): 3.52 µM; TGI (P388 leukemia): 2.05 µM; TGI (P388/ADR leukemia): 17.3 µM; TGI (SN12K1 renal): 0.753 µM; GI50 (SNB-78 CNS): 0.59 µM; GI50 (XF 498 CNS): 0.385 µM
CN=c1ss/c(=N\C(=S)N(C)C)n1C | > 100 µM | > 100 µM | > 100 µM | > 100 µM | > 100 µM | > 100 µM | > 100 µM |  | 
CCCNC(=O)Nc1c([N+](=O)[O-])cc(C(F)(F)F)cc1[N+](=O)[O-] |  |  |  | 61.4 µM | 69.1 µM | > 100 µM | > 100 µM | > 100 µM | 
Nc1nnc2c(-c3ccccc3)[nH]nc2n1 |  | > 100 µM |  | > 100 µM |  | > 100 µM |  |  | 
